Laboratory results reported in US7875638B2, “Synthesis of epothilones, intermediates thereto, analogues and uses thereof” (Sloan-Kettering Institute for Cancer Research, priority 2002, dated 2011).

Tested on: RPMI-8226 (human multiple myeloma cell line)
Assay: Global gene expression (Affymetrix chip AU133 2.0)
Type: cell-based
[1] = 6 hr gene difference, Fludelone vs dEpoB treated cells

C/C(=C\c1csc(C)n1)[C@@H]1C/C=C(/C(F)(F)F)C/C=C/[C@H](C)[C@H](O)[C@@H](C)C(=O)C(C)(C)[C@@H](O)CC(=O)O1 [Compound 29, 26-trifluoro-trans-9,10-dehydro-12,13-desoxyepothilone B]
Fold change in expression, APP (6 h): +2.14 fold | Fold change in expression, BASP1 (6 h): +2.83 fold | Fold change in expression, HIST1 (6 h): −2.00 fold | Fold change in expression, HNRPD (6 h): −2.46 fold | Fold change in expression, JUN (6 h): +3.25 fold | Fold change in expression, SKIL (6 h): +2.83 fold | Fold change in expression, SUV39 H2 (6 h): −2.00 fold | Fold change, AIM2 (6 h): −2.64 fold | Fold change, BCL3 (6 h): +3.25 fold | Fold change, CA4 (6 h): −2.14 fold | Fold change, HLA-II DPα (6 h): −3.73 fold | Fold change, Heme oxygenase (6 h): +2.30 fold | Fold change, PTPL (6 h): −2.46 fold | Fold change, T RIM34 (6 h): −5.66 fold | Fold change, TRIM22 (6 h): −2.46 fold | Fold change, GIP3 [1]: −6.06 fold | Fold change, IFI 27 [1]: −7.46 fold | Fold change, IFTM1 [1]: −4.00 fold | Fold change, MX1 [1]: −2.00 fold | Fold change in expression, AIP1 (18 h): +2.14 fold | Fold change in expression, AKAP9 (18 h): +2.00 fold | Fold change in expression, APBB2 (18 h): +2.00 fold | Fold change in expression, APG16L (18 h): +2.00 fold | Fold change in expression, APRIN (18 h): +2.00 fold | Fold change in expression, BAX (18 h): +2.00 fold | Fold change in expression, CCL3 (18 h): +3.48 fold | Fold change in expression, CCT8 (18 h): +2.30 fold | Fold change in expression, CD72 (18 h): +2.30 fold | Fold change in expression, CEB1 (18 h): −2.30 fold | Fold change in expression, CLorf29 (18 h): −6.06 fold | Fold change in expression, Cyclin E2 (18 h): −2.64 fold | Fold change in expression, DNAJB1 (18 h): +2.30 fold | Fold change in expression, DUSP6 (18 h): −2.14 fold | Fold change in expression, EIFA1 (18 h): +2.30 fold | Fold change in expression, ETS2 (18 h): +2.46 fold | Fold change in expression, F11 (18 h): −4.00 fold | Fold change in expression, FBXO5 (18 h): −2.30 fold | Fold change in expression, FLJ20045 (18 h): −2.46 fold | Fold change in expression, FLJ20130 (18 h): −5.66 fold | Fold change in expression, FLJ20241 (18 h): +3.73 fold | Fold change in expression, Fibrillin 2 (18 h): +12.3 fold | Fold change in expression, GA17 (18 h): +2.64 fold | Fold change in expression, GTF2H2 (18 h): +3.03 fold | Fold change in expression, HDAC9 (18 h): −2.00 fold | Fold change in expression, HNRPD (18 h): −3.25 fold | Fold change in expression, HSPA1A (18 h): +2.14 fold | Fold change in expression, HSPA1B (18 h): +2.00 fold | Fold change in expression, JUN (18 h): +2.64 fold | Fold change in expression, KIAA0191 protein (18 h): +2.14 fold | Fold change in expression, KIAA1025 protein (18 h): +3.25 fold | Fold change in expression, MADH1 (18 h): +2.00 fold | Fold change in expression, MARS (18 h): −2.00 fold | Fold change in expression, NRTN (18 h): −2.3 fold | Fold change in expression, PCNX (18 h): +3.48 fold | Fold change in expression, PHC3 (18 h): +2.83 fold | Fold change in expression, PKD1 (18 h): +7.46 fold | Fold change in expression, POU4F1 (18 h): −2.14 fold | Fold change in expression, PRKCBP1 (18 h): +2.64 fold | Fold change in expression, PRKDC (18 h): +21.11 fold | Fold change in expression, REPS1 (18 h): +9.85 fold | Fold change in expression, RPL23 (18 h): +2.14 fold | Fold change in expression, SEC24D (18 h): +2.64 fold | Fold change in expression, SEMA3D (18 h): +2.83 fold | Fold change in expression, SERPINH1 (18 h): +2.00 fold | Fold change in expression, SLC13A1 (18 h): +3.03 fold | Fold change in expression, SMA3 (18 h): +2.46 fold | Fold change in expression, TCS2 (18 h): +2.30 fold | Fold change in expression, TMEM1 (18 h): +2.14 fold | Fold change in expression, TRA2A (18 h): +3.03 fold | Fold change in expression, TRIO (18 h): +4.29 fold | Fold change in expression, VEZATIN (18 h): +2.00 fold | Fold change in expression, ZF (HCF-binding transcription factor) (18 h): −6.50 fold
